Test results: US20260125357A1, “LACTATE ENHANCING COMPOUNDS AND USES THEREOF” (GLIAPHARM SA, priority 2022, published 2026)

What was measured:
[1] = test system: old C57Bl/6J wild-type mice; experiment: Morris Water Maze memory in old (16-month-old) wild-type mice; format: in vivo, mouse; conditions: 1 day after training
Experimental: Adult male C57Bl/6J wild-type from 3 month of age (young adults) to 16 month of age (old adults) are used (Charles River). Animals are housed in groups of 3-5 in polypropylene cages (30×40×15 cm) with wire mesh top in a temperature (22±2° C.) and humidity (55±15%) controlled environment on a 12-hour light cycle (07.00-19.00 h lights on). The samples (Vehicle or compounds of the invention) are administered per os (gavage) in a solution made of water supplemented with 0.4% hydroxypropyl methylcellulose (HPMC) Methocel 4 KM (w/v) and 0.25% Tween-20 (v/v), as previously described (Thackaberry et al., 2010, Toxicol Sci., 117(2):485-92). Memory of young adults treated with Vehicle or Old adults treated with Vehicle or compound (1) at 10 mg/kg or 30 mg/kg is tested in the Morris Water Maze, as described below. Treatment is administered at each day of training, 30 minutes before the first training session. No treatment is administered during memory retention test.
(§1) Morris Water Maze (MWM), a well-established spatial and contextual memory test, will be used. […] A number of parameters including the latency to find the platform, time spent around the platform, path efficiency, % time spent in each quadrant is recorded, using automated tracking software (Ethovision). The type of exploration (direct, random, scan of the area) is also recorded. […]

[2] = test system: mice injected with streptozotocin; experiment: Morris Water Maze in streptozotocin ICV injection model of Alzheimer's disease; format: in vivo, mouse; conditions: 30 mg/kg, 1 Day after training, vs Veh
Experimental: Craniotomies are performed on isoflurane-anesthetized mice for injections of Veh or streptozotocin in cerebral ventricles (coordinates: −0.5 mm (to bregma), lateral+/−1.0 mm (to midline), ventral −2.2 mm (to dura)) (Kelliny S. et al., Molecular Neurobiology, 2021). A solution composed of Veh (0.9% NaCl) or streptozotocin (5 mg/kg) prepared in 1 μl artificial cerebrospinal fluid solution (aCSF, 20 mM citrate buffer, pH 4.2) is injected in both cerebral ventricles using Hamilton micro syringe at a constant speed of 100-200 nl/min. After injection, skin of the skull is sutured, and mice is monitored closely and receives analgesic treatment for at least 4 days. After mice had fully recovered from surgery, memory tests including Morris Water Maze (MWM), Inhibitory Avoidance (IA) and Novel Object Recognition (NOR), as described below, are performed. […]
as §1

[3] = test system: APOE4(+) transgenic mice; experiment: Morris Water Maze memory in APOE4(+) mouse model of Alzheimer's disease; format: in vivo; conditions: 30 mg/kg, 7 days after training
Excerpt: Mouse models carrying the APOE4 human allele have a decrease in metabolic gene expression and cerebral glucose uptake compared to APOE3-expressing model (Williams et al., 2020, neurobiol dis, 136:104742; Lin et al., 2015, J Cereb Blood Flow Metabl, 37(1):217-226; Alata et al., 2015, J Cereb Blood Flow Metab, 35(1):86-94. These physiological perturbations induce a brain hypometabolism, which recapitulates brain metabolic status observed in AD carriers of APOE4 allele. Male and female APOE4(+) and APOE3(+) (controls) transgenic mice are used at 3 months of age. Memory of APOE3(+) mice treated with Veh and APOE4 (+) mice treated with Veh or compound (2) at 10 mg/kg and 30 mg/kg is tested in the Morris Water Maze, as described below. Treatment is administered at each day of training, 30 minutes before the first training session. No treatment is administered during memory retention test.
as §1

[4] = test system: human iPSC-derived astrocytes; experiment: Uptake of 2-DG in human iPSC-derived astrocytes; format: cell-based; conditions: treated for 1.5 hours
Experimental: Astrocytes grown on 12-well plates and transfected with either scramble siRNA or GLUT1 siRNA were used. 1 day after having replaced transfection medium (DIV13), 2DG uptake was measured after treatment for 30 min with Vehicle (0.1% DMSO) or with the compound of the invention (1) to (5) (concentrations of 0.1 to 10 μM). During treatment, 1 mM 2DG was added to the medium for assessment of 2DG uptake. At the end of the stimulation, medium was removed and replaced with 150 μl NaOH 0.1M, and stored at −20° C. After thawing, cells were collected using cell scraper and heated for 40 min at 85° C. Then, 150 ul HCl 0.1M and TAE buffer 200 mM was added to each condition. 20 μl were added to a transparent 96-well plate and 2DG was quantified by addition of a reaction solution containing 50 mM TAE, 50 mM KCl, 0.02% BSA, 0.1 mM NADP, 0.2 U/ml diaphorase, 2 mM resazurin and 20 U/ml glucose-6-phosphate dehydrogenase. Concentration of 2DG in samples were calculated by comparison with standard curve of deoxy-glucose-6-phophate ranging from 0 to 1 nmoles.
Human iPSC-derived astrocytes were purchased from NCardia (NCyte Astrocytes) and were plated at a density of ˜10′000 cells/cm^2 in 96-well or 12-well plates, according to the manufacturer's instructions and using the recommended media. […] Uptake of 2-DG and release of lactate were quantified as described previously.

COc1cc2ccnc(Nc3ccc(S(C)(=O)=O)cc3)c2cc1OC [Compound 2, 6,7-dimethoxy-N-(4-methylsulfonylphenyl)isoquinolin-1-amine]
memory in the Morris Water Maze ([1]; 10 mg/kg per os): significant increase of memory | memory in the Morris Water Maze ([1]; 30 mg/kg per os): significant increase of memory | memory in the Morris Water Maze [2]: significantly higher | memory in the Morris Water Maze [3]: significant increase of memory | uptake of 2-DG [4]: increased uptake of 2-DG
